Source: BigSolDB 2.1

O=C(O)CCc1nc(-c2ccccc2)c(-c2ccccc2)o1
solubility (mole fraction)
Details	278.15 K	283.15 K	288.15 K	293.15 K	298.15 K	303.15 K	308.15 K	313.15 K	318.15 K	323.15 K
in DMAc	0.205	0.213	0.223	0.232	0.243	0.252	0.261	0.273	0.284	0.295
in DMF	0.136	0.146	0.154	0.164	0.174	0.186	0.197	0.207	0.219	0.232
in DMSO	–	–	–	0.214	0.226	0.24	0.256	0.272	0.287	0.303
in ethanol	0.00257	0.00315	0.00388	0.00476	0.00592	0.00716	0.00894	0.0112	0.014	0.0177
in ethyl acetate	0.00398	0.00472	0.00558	0.00661	0.00778	0.00925	0.011	0.0129	0.0151	0.0178
in methanol	0.0023	0.00282	0.00343	0.00426	0.00523	0.00657	0.00821	0.0103	0.013	0.0164
in methyl acetate	0.00533	0.00626	0.00735	0.00867	0.0102	0.012	0.0146	0.0167	0.0192	0.022
in n-butanol	0.00266	0.00328	0.00422	0.00533	0.00663	0.008	0.0105	0.0131	0.0164	0.0205
in n-butyl acetate	0.00293	0.00347	0.00416	0.00489	0.00593	0.00707	0.00842	0.01	0.012	0.0143
in n-pentanol	0.00266	0.00349	0.00458	0.00561	0.00701	0.00864	0.0108	0.0134	0.0168	0.021
in n-pentyl acetate	0.00274	0.00331	0.00387	0.0046	0.0055	0.00654	0.00782	0.00931	0.0111	0.0132
in n-propanol	0.00255	0.00326	0.00414	0.00519	0.00637	0.00794	0.01	0.0122	0.0161	0.0201
in n-propyl acetate	0.0032	0.00386	0.00463	0.00534	0.00656	0.00781	0.00935	0.0111	0.0132	0.0158
